According to patent US9981969B2, “Imidazole derivatives and methods of use thereof for improving the pharmacokinetics of a drug” (MERCK SHARP & DOHME CORP., priority 2013, dated 2018):

Tests used:
CYP3A4 = target: T1, CYP3A4 (Homo sapiens, UniProt P08684); assay: Cocktail assay for CYPs in human liver microsomes, midazolam 1′-hydroxylation (3A4); type: biochemical; settings: 2 μM midazolam, 10 min at 37° C.
T1 construct: 0.1 mg/mL protein human liver microsomes (BD Gentest); tissue BD Gentest; host or cells: human liver microsomes
T1 sequence (P08684 whole entry): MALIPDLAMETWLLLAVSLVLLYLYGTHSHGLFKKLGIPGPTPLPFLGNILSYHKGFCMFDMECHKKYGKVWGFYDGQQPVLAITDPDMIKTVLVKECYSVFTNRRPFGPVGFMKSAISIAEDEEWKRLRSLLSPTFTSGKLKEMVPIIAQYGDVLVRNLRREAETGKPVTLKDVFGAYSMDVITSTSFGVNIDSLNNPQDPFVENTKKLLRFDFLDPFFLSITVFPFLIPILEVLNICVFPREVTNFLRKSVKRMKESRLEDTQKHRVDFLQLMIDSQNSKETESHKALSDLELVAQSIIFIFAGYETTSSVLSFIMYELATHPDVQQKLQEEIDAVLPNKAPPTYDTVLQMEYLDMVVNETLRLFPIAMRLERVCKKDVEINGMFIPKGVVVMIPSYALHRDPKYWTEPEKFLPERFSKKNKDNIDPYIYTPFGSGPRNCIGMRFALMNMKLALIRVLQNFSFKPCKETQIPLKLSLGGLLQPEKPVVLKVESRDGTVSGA
Procedure: (§1) This assay was performed in a standard 96-well plate design. IC50 values were calculated from the percent inhibition observed for each test compound at 6 concentrations (for example, 0.0032, 0.016, 0.08, 0.4, 2 and 10 μM). The incubation substrate mix contains 10 μM phenacetin (1A2), 5 μM diclofenac (2C9), 30 μM mephenytoin (2C19), 5 μM dextromethorphan (2D6) and 2 μM midazolam (3A4), 0.1 mg/mL protein human liver microsomes (BD Gentest), 1 mM NAPDH, 3.3 mM MgCl2 and 100 mM potassium phosphate buffer (pH 7.4). The production of the metabolite of each probe substrate was determined after incubation for 10 min at 37° C. Quantitation of the metabolite peak area ratio against an internal standard (tolbutamide) was determined by LC/MS/MS analysis following acetonitrile treatment of the incubations.
(§2) Samples were analyzed in the MRM mode with a SCIEX API-4000 mass spectrometer (Applied Biosystems, Foster City, Calif.), with a Shimadzu LC-20 AD pump (Shimadzu corporation, Kyoto, JP) and a CTC PAL autosampler (Agilent Technologies, Switzerland). A Phenomenex, Luna, 5 μm, 100A, 2.00×30 mm HPLC column was used for the separation. The mobile phases were: (A) 0.1% formic acid in water and (B) 0.1% formic acid in acetonitrile. The binary gradient was as follows. AutoSampler: CTC PAL
(§3) The peak area ratio of the analyte to the internal standard was used to quantify the metabolite. The values of peak area ratios in the presence of test compound were compared to those of maximum or minimum controls and were expressed as % inhibition by interpolating between the maximum and minimum peak area ratios. Incubations with no inhibitor were defined as the maxima. The following equation was used to calculate the % inhibition: [1−[(X−Low control)/(High control−Low control)]]*100 For the IC50 calculation, SigmaPlot was used to plot the mean % inhibition versus the test compound concentrations and for non-linear regression analysis of the data. Depending on the range of data points defining the inhibition curve, the data may have been fit to the 4-parameter logistic equation.

CYP2C19 = target: T2, CYP2C19 (Homo sapiens, UniProt P33261); assay: Cocktail assay for CYPs in human liver microsomes, mephenytoin 4′-hydroxylation (2C19); type: biochemical; settings: 30 μM mephenytoin, 10 min at 37° C.
T2 construct: 0.1 mg/mL protein human liver microsomes (BD Gentest); tissue BD Gentest; host or cells: human liver microsomes
T2 sequence (P33261 whole entry): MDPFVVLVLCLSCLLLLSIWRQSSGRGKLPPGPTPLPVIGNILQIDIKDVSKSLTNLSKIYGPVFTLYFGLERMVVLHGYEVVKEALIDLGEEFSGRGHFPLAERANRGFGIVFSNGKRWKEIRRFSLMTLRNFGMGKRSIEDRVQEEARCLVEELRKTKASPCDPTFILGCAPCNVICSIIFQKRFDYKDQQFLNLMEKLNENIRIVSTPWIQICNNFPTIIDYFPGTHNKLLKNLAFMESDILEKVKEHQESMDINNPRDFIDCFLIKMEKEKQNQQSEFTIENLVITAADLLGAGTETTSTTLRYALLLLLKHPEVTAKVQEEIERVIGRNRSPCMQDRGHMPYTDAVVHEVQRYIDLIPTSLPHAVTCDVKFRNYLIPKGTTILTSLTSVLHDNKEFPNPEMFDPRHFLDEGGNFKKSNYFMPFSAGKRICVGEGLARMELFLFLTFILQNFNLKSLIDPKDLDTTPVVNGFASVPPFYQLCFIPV
Procedure: as §1, §2, §3

CYP2C9 = target: T3, CYP2C9 (Homo sapiens, UniProt P11712); assay: Cocktail assay for CYPs in human liver microsomes, diclofenac 4′-hydroxylation (2C9); type: biochemical; settings: 5 μM diclofenac, 10 min at 37° C.
T3 construct: 0.1 mg/mL protein human liver microsomes (BD Gentest); tissue BD Gentest; host or cells: human liver microsomes
T3 sequence (P11712 whole entry): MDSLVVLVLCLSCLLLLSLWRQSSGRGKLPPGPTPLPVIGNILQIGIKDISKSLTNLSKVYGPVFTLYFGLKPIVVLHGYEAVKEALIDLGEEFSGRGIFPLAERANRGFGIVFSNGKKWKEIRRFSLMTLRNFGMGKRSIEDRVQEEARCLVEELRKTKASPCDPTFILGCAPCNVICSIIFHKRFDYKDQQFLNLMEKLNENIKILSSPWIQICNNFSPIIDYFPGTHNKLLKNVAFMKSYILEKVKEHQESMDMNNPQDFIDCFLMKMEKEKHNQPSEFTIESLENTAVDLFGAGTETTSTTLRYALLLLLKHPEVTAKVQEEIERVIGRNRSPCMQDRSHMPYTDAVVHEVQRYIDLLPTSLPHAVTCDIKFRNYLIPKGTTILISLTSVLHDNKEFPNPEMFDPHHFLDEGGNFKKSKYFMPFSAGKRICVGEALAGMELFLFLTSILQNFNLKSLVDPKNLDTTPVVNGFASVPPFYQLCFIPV
Procedure: as §1, §2, §3

human CYP11B2 = target: T4, human CYP11B2 (Homo sapiens, UniProt P19099); assay: IC50 vs CYP11B2 by measurement of aldosterone synthesis in V79 cells; type: cell-based; settings: V79 cells expressing human CYP11B2, 750 nM DOC, aldosterone HTRF
T4 construct: expressed in transfected cells
T4 sequence (P19099 25-503): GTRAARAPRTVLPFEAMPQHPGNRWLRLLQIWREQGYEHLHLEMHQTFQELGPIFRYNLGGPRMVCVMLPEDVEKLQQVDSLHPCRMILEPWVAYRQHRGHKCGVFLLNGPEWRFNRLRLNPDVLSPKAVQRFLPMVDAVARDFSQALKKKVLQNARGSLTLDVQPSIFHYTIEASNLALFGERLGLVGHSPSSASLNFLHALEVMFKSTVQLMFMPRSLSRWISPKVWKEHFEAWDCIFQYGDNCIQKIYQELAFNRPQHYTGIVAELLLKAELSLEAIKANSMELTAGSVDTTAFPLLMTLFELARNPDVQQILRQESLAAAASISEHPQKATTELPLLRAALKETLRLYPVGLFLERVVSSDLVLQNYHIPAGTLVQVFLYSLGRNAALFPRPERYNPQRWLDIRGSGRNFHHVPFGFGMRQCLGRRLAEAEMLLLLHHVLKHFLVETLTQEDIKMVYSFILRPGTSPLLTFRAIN
Procedure: (§4) This assay was performed in a standard 384-well plate design using cultured V79 cells stably expressing human CYP11B1 or human CYP11B2. Test compounds at 10 concentrations (for example, 10000, 3333.3, 1111.1, 370.4, 123.5, 41.2, 13.7, 4.6, 1.5 and 0.5 nM) were added in 384-well plate after the cell-seeding procedure. The incubation substrate contains 1500 nM RSS for CYP11B1 assay/750 nM DOC for CYP11B2 assay. The Cortisol/Aldosterone production of cell culture supernatant was determined by Cortisol/Aldosterone HTRF kit after for about 15 hours incubation at RT (protect from light). IC50 (nM) values were calculated from the percent inhibition observed for each test compound at 10 concentrations.
(§5) The assay plate was read using Envision (Perkin Elmer, Waltham, Mass.) at 665 nm and 590 nm (using Filter Barcode of 217#, 205#; Mirror Barcode of 446#).
(§6) Data are analyzed using Assay Data Analyzer. All ratio data (665 nm/590 nm) are back calculated according to the standard curve, resulting in Cortisol/Aldosterone concentrations. IC50 (nM) values are reported as the Inflection Point (IP) of a four parameter fit of the titration data.
(§7) The following equation was used to calculate the % inhibition: % Activity=100×{1−(Sample_back calculated Cortisol/Aldosterone concentration−LC_back calculated Cortisol/Aldosterone concentration)/(HC_back calculated Cortisol/Aldosterone concentration−LC_back calculated Cortisol/Aldosterone concentration)} Curve Fitting: Four Parameter Logistic: […]

CYP2D6 = target: T5, CYP2D6 (Homo sapiens, UniProt P10635); assay: Cocktail assay for CYPs in human liver microsomes, dextromethorphan O-demethylation (2D6); type: biochemical; settings: 5 μM dextromethorphan, 10 min at 37° C.
T5 construct: 0.1 mg/mL protein human liver microsomes (BD Gentest); tissue BD Gentest; host or cells: human liver microsomes
T5 sequence (P10635 whole entry): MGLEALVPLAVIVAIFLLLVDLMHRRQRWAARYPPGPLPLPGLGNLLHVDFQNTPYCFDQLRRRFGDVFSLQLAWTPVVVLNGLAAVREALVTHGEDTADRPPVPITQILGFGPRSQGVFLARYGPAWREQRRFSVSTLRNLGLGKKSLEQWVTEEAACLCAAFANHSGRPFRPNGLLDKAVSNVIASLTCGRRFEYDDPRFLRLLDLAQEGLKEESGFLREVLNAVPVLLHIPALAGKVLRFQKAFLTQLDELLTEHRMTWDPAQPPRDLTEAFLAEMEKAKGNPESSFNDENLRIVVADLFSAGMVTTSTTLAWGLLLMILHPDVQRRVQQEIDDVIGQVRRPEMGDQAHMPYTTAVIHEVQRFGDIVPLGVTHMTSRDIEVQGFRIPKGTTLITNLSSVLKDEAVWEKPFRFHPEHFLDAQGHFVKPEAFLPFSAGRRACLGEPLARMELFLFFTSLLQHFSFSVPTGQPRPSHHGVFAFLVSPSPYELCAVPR
Procedure: as §1, §2, §3

human CYP11B1 = target: T6, human CYP11B1 (Homo sapiens, UniProt P15538); assay: IC50 vs CYP11B1 by measurement of cortisol synthesis in V79 cells; type: cell-based; settings: V79 cells expressing human CYP11B1, 1500 nM RSS, cortisol HTRF
T6 construct: expressed in transfected cells
T6 sequence (P15538 25-503): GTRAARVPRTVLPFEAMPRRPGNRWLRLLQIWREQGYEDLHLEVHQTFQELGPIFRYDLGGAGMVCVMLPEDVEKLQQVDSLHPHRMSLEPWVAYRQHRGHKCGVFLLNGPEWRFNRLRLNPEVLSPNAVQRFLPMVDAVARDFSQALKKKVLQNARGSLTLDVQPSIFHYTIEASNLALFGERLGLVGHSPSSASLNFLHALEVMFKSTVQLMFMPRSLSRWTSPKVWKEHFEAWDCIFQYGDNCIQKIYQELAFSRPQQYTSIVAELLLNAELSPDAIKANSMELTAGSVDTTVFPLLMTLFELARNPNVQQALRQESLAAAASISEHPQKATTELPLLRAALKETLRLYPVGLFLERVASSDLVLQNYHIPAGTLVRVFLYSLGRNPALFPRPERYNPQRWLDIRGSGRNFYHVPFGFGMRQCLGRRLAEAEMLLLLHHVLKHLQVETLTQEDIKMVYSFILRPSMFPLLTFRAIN
Procedure: as §4, §5, §6, §7

CYP1A2 = target: T7, CYP1A2 (Homo sapiens, UniProt P05177); assay: Cocktail assay for CYPs in human liver microsomes, phenacetin O-deethylation (1A2); type: biochemical; settings: 10 μM phenacetin, 10 min at 37° C.
T7 construct: 0.1 mg/mL protein human liver microsomes (BD Gentest); tissue BD Gentest; host or cells: human liver microsomes
T7 sequence (P05177 1-516): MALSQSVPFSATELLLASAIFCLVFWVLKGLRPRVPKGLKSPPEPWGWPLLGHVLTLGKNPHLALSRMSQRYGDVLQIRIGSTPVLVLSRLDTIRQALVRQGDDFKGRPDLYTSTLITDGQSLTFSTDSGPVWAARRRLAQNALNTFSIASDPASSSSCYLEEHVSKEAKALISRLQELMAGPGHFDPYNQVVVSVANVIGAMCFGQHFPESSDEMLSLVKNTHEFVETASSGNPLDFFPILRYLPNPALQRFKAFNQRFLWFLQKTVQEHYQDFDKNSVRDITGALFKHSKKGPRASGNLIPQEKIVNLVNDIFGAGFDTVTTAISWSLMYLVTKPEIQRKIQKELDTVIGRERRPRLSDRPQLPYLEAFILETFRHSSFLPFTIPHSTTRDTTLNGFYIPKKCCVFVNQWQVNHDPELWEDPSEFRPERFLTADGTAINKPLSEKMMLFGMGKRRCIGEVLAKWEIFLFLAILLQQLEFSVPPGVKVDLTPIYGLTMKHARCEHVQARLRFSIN
Procedure: as §1, §2, §3

| Structure (SMILES) | IC50 (CYP3A4) [µM] | IC50 (CYP2C19) [µM] | IC50 (CYP2C9) [µM] | IC50 (human CYP11B2) [µM] | IC50 (CYP2D6) [µM] | IC50 (human CYP11B1) [µM] | IC50 (CYP1A2) [µM] |
| --- | --- | --- | --- | --- | --- | --- | --- |
| C[C@@H](c1ccccc1-c1ccc(F)cc1)n1cncc1C(=O)N1CCCC(N2CCC(C)(O)CC2)CC1 (single isomer, unassigned) [Compound 3b] | 0.0066 | > 10 | > 10 | 42.6 | 2.39 | 12.6 | > 10 |
| C[C@@H](c1ccccc1-c1ccc(F)cc1)n1cncc1C(=O)N1CCC(N2CCNC(=O)C2)CC1 [Compound 20] | 0.0045 | > 10 | > 10 | 31.2 | > 10 | 16.8 | > 10 |
| C[C@H]1CN(C(=O)c2cncn2[C@@H](C)c2ccccc2-c2ccc(F)cc2)CC[C@H]1N1CCNC(=O)C1 [Compound 31] | 0.0097 | > 10 | > 10 | > 50 | 9.6 | 28.1 | > 10 |
| C[C@@H](c1ccccc1-c1ccc(F)cc1)n1cncc1C(=O)N1CCC[C@@H]2OCCN[C@H]2C1 [Compound 53] | 0.011 | > 10 | > 10 | > 50 | > 10 | 16.4 | > 10 |
| C[C@@H](c1ccccc1-c1ccc(Cl)nc1)n1cncc1C(=O)N1CCC2NCCO[C@@H]2C1 (stereo partly drawn) [Compound 41] | 0.0071 | > 10 | > 10 | > 50 | 7.48 | 42.2 | > 10 |
| CO[C@H]1CN(C2CCN(C(=O)c3cncn3[C@@H](C)c3ccccc3-c3ccc(F)cc3)CC2)CC[C@H]1O [Compound 11] | 0.006 | > 10 | > 10 | > 50 | 7.06 | 26.7 | > 10 |
| C[C@@H](c1ccccc1-c1ccc(F)c(F)c1F)n1cncc1C(=O)N1CCC2NCCO[C@@H]2C1 (stereo partly drawn) [Compound 39] | 0.0048 | > 10 | > 10 | > 50 | 9.45 | 14.6 | > 10 |
| C[C@@H](c1ccccc1-c1ccc(F)cc1)n1cncc1C(=O)N1CCC(N2CCn3ncnc3C2)CC1 [Compound 27] | 0.0058 | > 10 | > 10 | 23.9 | > 10 | 11.1 | > 10 |
| C[C@@H](c1ccccc1CN1CCC(F)CC1)n1cncc1C(=O)N1CCC2NCCO[C@@H]2C1 (stereo partly drawn) [Compound 45] | 0.0077 | > 10 | > 10 | > 50 | > 10 | > 50 | > 10 |
| CC(C)c1ccccc1[C@H](C)n1cncc1C(=O)N1CCC2NCCO[C@@H]2C1 (stereo partly drawn) [Compound 47] | 0.0085 | > 10 | > 10 | 9.02 | 9.25 | 45.3 | > 10 |
| C[C@@H](c1ccccc1-c1cccc2c1OCC2)n1cncc1C(=O)N1CCC2NCCO[C@@H]2C1 (stereo partly drawn) [Compound 43] | 0.0066 | > 10 | > 10 | > 50 | 7.09 | 30.3 | > 10 |
| C[C@@H](c1ccccc1-c1ccc(F)cc1)n1cncc1C(=O)N1CCC2NC(=O)COC2(C)C1 (stereo partly drawn) [Compound 51] | 0.0048 | > 10 | > 10 | > 50 | > 10 | 20.8 | > 10 |
